This is an account of results in ChEMBL document CHEMBL1201862, “PubChem BioAssay data set” (2004).

Some test systems named below: 786-0; A549; HCC 2998; HCT-15; IGROV-1; K562; MOLT-4; NCI-H522; OVCAR-5; SF-539; SK-MEL-5; SK-OV-3; SNB-75; SW-620; U-251; UACC-257; UO-31; A498.
Assay in all cases: growth of human tumour cells (NCI), 48 h

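Method: 48-hour compound exposure of cells in 96-well plates, five concentrations, linear interpolation of endpoints. GI50 is the concentration that inhibits growth by half.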 Activity calls are given as the source filed them. No stated cut-off is given here; in the data, active = GI50 up to about 1.1 µM and inactive = higher.

Regarding `CC(C)(C)C1=Nc2c(Br)cc(C(C)(C)C)cc2C(C(F)(F)F)(C(F)(F)F)O1`, the GI50 in the assay on 786-0 is 35.3 µM (inactive); in the assay with A549, 43.4 µM (inactive); with HCC 2998, 29.9 µM (inactive); with HCT-15 it was 43.7 µM; in the assay with IGROV-1, 65.5 µM (inactive); in the assay on K562, 39.4 µM (inactive). The GI50 in the assay on MOLT-4 is 45.8 µM (inactive); in the assay on NCI-H522 it was 31.1 µM (inactive); in the assay on OVCAR-5, > 100 µM (inactive); in the assay with SF-539, 37.8 µM (inactive); with SK-MEL-5, 83.6 µM (inactive); in the assay with SK-OV-3 it was > 100 µM (inactive). The GI50 in the assay on SNB-75 is > 100 µM (inactive); in the assay on SW-620, 46.7 µM (inactive); with U-251 it was 22.9 µM (inactive); in the assay on UACC-257 it was 48 µM (inactive); with UO-31, 47.2 µM (inactive).
In the case of `COc1ccc(NC(=O)CC/C(CC(=O)C(C)(C)C)=N\NC(=O)C(N)=O)cc1`, the GI50 with 786-0 was > 100 µM (inactive); in the assay on A549, > 100 µM (inactive); with HCC 2998 it was > 100 µM (inactive); with HCT-15 it was over 100 µM; with IGROV-1 it was > 100 µM (inactive); with K562 it was 84.9 µM (inactive). The GI50 in the assay with MOLT-4, in the assay with OVCAR-5, in the assay on SF-539, in the assay on SK-OV-3, with SW-620 and in the assay on U-251 was > 100 µM (inactive) each time. Moreover, the GI50 in the assay on UACC-257 and in the assay on UO-31 was > 100 µM (inactive) throughout.
Turning to `Cc1ccc(S(=O)(=O)N/N=C(/CC(=O)c2c(C)[n+]([O-])c3ccccc3[n+]2[O-])C(=O)Nc2ccc(C)c(C)c2)cc1`, the GI50 was > 100 µM (inactive) in the assay with 786-0; > 100 µM (inactive) with A498; > 100 µM (inactive) in the assay on A549; 90.4 µM (inactive) in the assay on HCC 2998; 48.6 µM in the assay with HCT-15; 62.8 µM (inactive) in the assay on IGROV-1. The GI50 was 70.1 µM (inactive) with NCI-H522; 88.7 µM (inactive) in the assay with OVCAR-5; > 100 µM (inactive) with SF-539; > 100 µM (inactive) in the assay with SK-OV-3; > 100 µM (inactive) with SNB-75; 33.7 µM (inactive) with SW-620. Further, the GI50 with U-251 is 28.5 µM (inactive); in the assay on UACC-257, 87.1 µM (inactive); in the assay with UO-31, > 100 µM (inactive).
Turning to `Cn1cc(C(=O)c2ccccc2)c2ccccc2c1=O`, the GI50 with 786-0 was > 100 µM (inactive); in the assay on A549, > 100 µM (inactive); in the assay with HCC 2998, > 100 µM (inactive); in the assay on HCT-15 it was over 100 µM; in the assay with IGROV-1, > 100 µM (inactive); in the assay with MOLT-4, > 100 µM (inactive). For the same compound, the GI50 was 34.4 µM (inactive) in the assay on NCI-H522; > 100 µM (inactive) in the assay with SF-539; > 100 µM (inactive) with SK-MEL-5; > 100 µM (inactive) in the assay on SK-OV-3; 23.4 µM (inactive) in the assay on SNB-75; > 100 µM (inactive) with SW-620. For the same compound, in the assay on UACC-257, the GI50 is > 100 µM (inactive).
On to `Cc1cc2c(=O)c(C)n[nH]c2c(C#N)c1C`, for which the GI50 in the assay on 786-0 was > 100 µM (inactive); with A549, > 100 µM (inactive); in the assay on HCC 2998, > 100 µM (inactive); with HCT-15, over 100 µM; in the assay with IGROV-1 it was > 100 µM (inactive); in the assay with MOLT-4, > 100 µM (inactive). The GI50 in the assay on OVCAR-5, in the assay with SF-539, in the assay on SK-OV-3, in the assay with SNB-75, with SW-620 and in the assay with U-251 was > 100 µM (inactive) in each case. Moreover, the GI50 in the assay on UACC-257 and with UO-31 was > 100 µM (inactive) throughout.
As for `CCOC(=O)C1([Se]c2ccccc2)CCCC1=O` (stereo unspecified), the GI50 was 14.2 µM (inactive) with 786-0; > 100 µM (inactive) in the assay on A498; 32.7 µM (inactive) with A549; 25.9 µM (inactive) in the assay with HCC 2998; 13.2 µM with HCT-15; 18.6 µM (inactive) with IGROV-1. Further, the GI50 is 33.5 µM (inactive) in the assay on K562; 22.3 µM (inactive) with MOLT-4; 3.6 µM (inactive) in the assay with NCI-H522; 40.8 µM (inactive) in the assay with OVCAR-5; 19.6 µM (inactive) in the assay on SF-539; 20.1 µM (inactive) in the assay on SK-MEL-5. Further, the GI50 was > 100 µM (inactive) in the assay on SK-OV-3; 23.6 µM (inactive) in the assay on SNB-75; 9.95 µM (inactive) with U-251; 43.7 µM (inactive) with UACC-257; 23.6 µM (inactive) with UO-31.
For `COC1CC(O)C(OC(=O)c2ccccc2)C(C)O1` (stereo unspecified), the GI50 was > 100 µM (inactive) with 786-0; > 100 µM (inactive) with A498; > 100 µM (inactive) in the assay with A549; > 100 µM (inactive) in the assay with HCC 2998; over 100 µM with HCT-15; > 100 µM (inactive) in the assay with IGROV-1. For the same compound, the GI50 with K562, in the assay on MOLT-4, in the assay on NCI-H522, in the assay with OVCAR-5, in the assay with SF-539 and in the assay on SK-MEL-5 was > 100 µM (inactive) each time. The GI50 with SW-620 is > 100 µM (inactive); in the assay on U-251, > 100 µM (inactive); with UACC-257, > 10 µM (inactive).
As to `COc1ccc(-c2cc(=O)c3cc(C)c(C)c(C(=O)O)c3o2)cc1`, the GI50 in the assay on 786-0 is > 100 µM (inactive); with A498, > 100 µM (inactive); in the assay on A549 it was > 100 µM (inactive); in the assay on HCC 2998 it was > 100 µM (inactive); in the assay on HCT-15 it was over 100 µM; in the assay on IGROV-1, > 100 µM (inactive). Also, the GI50 in the assay on K562, in the assay on MOLT-4, in the assay on SF-539, with SK-OV-3, with SNB-75 and in the assay with SW-620 was > 100 µM (inactive) throughout. For the same compound, the GI50 with U-251, in the assay with UACC-257 and in the assay with UO-31 was > 100 µM (inactive) in each case.
Turning to `CCc1c(OC(C)=O)c2c(NC3OCC(OC(C)=O)C(OC(C)=O)C3OC(C)=O)nc(SC)nc2oc1=O` (stereo unspecified), the GI50 in the assay on 786-0 was > 100 µM (inactive); with A498, > 100 µM (inactive); with A549, > 100 µM (inactive); in the assay on HCC 2998, > 100 µM (inactive); with HCT-15 it was over 100 µM; in the assay on IGROV-1, > 100 µM (inactive). For the same compound, the GI50 in the assay on K562, with MOLT-4, in the assay with OVCAR-5, in the assay on SF-539, in the assay on SK-MEL-5 and with SK-OV-3 was > 100 µM (inactive) in each case. In addition, the GI50 with SNB-75, in the assay on SW-620, in the assay on U-251, in the assay with UACC-257 and with UO-31 was > 100 µM (inactive) each time.
For `COc1ccc(OC)c2cc(C3(C)SCCCS3)ccc12`, the GI50 in the assay on 786-0 was 73.6 µM (inactive); in the assay on A498 it was > 100 µM (inactive); with A549, > 100 µM (inactive); with HCC 2998 it was > 100 µM (inactive); in the assay with HCT-15 it was 88.1 µM; in the assay on IGROV-1 it was > 100 µM (inactive). For the same compound, the GI50 in the assay with K562 was 53.5 µM (inactive); in the assay with MOLT-4, 89.7 µM (inactive); with OVCAR-5, > 100 µM (inactive); with SF-539, > 100 µM (inactive); in the assay with SK-MEL-5, > 100 µM (inactive); in the assay with SK-OV-3, > 100 µM (inactive). The GI50 was 56.6 µM (inactive) in the assay on SNB-75; > 100 µM (inactive) in the assay with SW-620; 19.3 µM (inactive) in the assay on U-251; > 100 µM (inactive) in the assay with UACC-257; > 100 µM (inactive) in the assay on UO-31.
Turning to `O=C(NC1CC1)c1c(O)[nH]c(=S)[nH]c1=O`, the GI50 was > 100 µM (inactive) in the assay with 786-0; > 100 µM (inactive) in the assay on A498; > 100 µM (inactive) in the assay on A549; over 100 µM in the assay on HCT-15; > 100 µM (inactive) with IGROV-1; > 100 µM (inactive) with K562. Moreover, the GI50 with MOLT-4, in the assay on NCI-H522, in the assay with OVCAR-5, in the assay with SF-539, in the assay on SK-MEL-5 and in the assay with SK-OV-3 was > 100 µM (inactive) throughout. The GI50 in the assay on SNB-75, with SW-620, in the assay with U-251, in the assay on UACC-257 and with UO-31 was > 100 µM (inactive) in each case.
Turning to `COc1ncn(C2C=C(CO)C(O)C2O)c(=O)n1` (stereo unspecified), the GI50 was > 100 µM (inactive) in the assay on 786-0; > 100 µM (inactive) in the assay on A498; > 100 µM (inactive) in the assay on A549; > 100 µM (inactive) in the assay on HCC 2998; over 100 µM in the assay on HCT-15; > 100 µM (inactive) in the assay with IGROV-1. The GI50 in the assay on K562, with MOLT-4, in the assay on NCI-H522, in the assay on SF-539, with SK-MEL-5 and in the assay on SK-OV-3 was > 100 µM (inactive) each time. The GI50 was > 100 µM (inactive) with SNB-75; < 0.01 µM (active) in the assay on SW-620; > 100 µM (inactive) with U-251; > 100 µM (inactive) in the assay with UACC-257; > 100 µM (inactive) in the assay with UO-31.
Consider `O=C(N/N=C/c1cccc(F)c1)c1ccncc1`, for which the GI50 with 786-0 was > 100 µM (inactive); in the assay on A498, > 100 µM (inactive); in the assay on A549, > 100 µM (inactive); in the assay with HCC 2998, > 100 µM (inactive); in the assay with HCT-15 it was over 100 µM; with MOLT-4, > 100 µM (inactive). In addition, the GI50 in the assay on NCI-H522 is > 10 µM (inactive); in the assay with SK-MEL-5, > 100 µM (inactive); in the assay with SK-OV-3, > 100 µM (inactive); in the assay on SNB-75, > 100 µM (inactive); in the assay with SW-620, > 100 µM (inactive); in the assay with U-251, > 100 µM (inactive). The GI50 in the assay on UACC-257 is > 100 µM (inactive).
